According to patent US20230113847A1, “[…] IMMUNE RESPONSE WITH CUPROUS COMPLEXES” (C LAB PHARMA INTERNATIONAL, S.A., priority 2020, published 2023):

Assays:
[1] = stated in description, relevance to route of administration
[2] = tested on: Lymphocytes; conditions: Day 28, twice daily administration; otherwise healthy subjects with chronic pain
Protocol: (§1) Ethics: This study was reviewed by the Natural Health Products Directorate (NHPD), Health Canada and a research ethics board. This study was conducted in accordance with the principles established in the Declaration of Helsinki and its subsequent amendments. Informed consent was obtained from each subject at the screening visit prior to any study related activities. The clinical trial was conducted at KGK Synergize Inc. (London, ON, Canada).
(§2) Sample Collection: As depicted in FIG. 1, blood was collected from participants on the initial screening (Day −1), the first day of administering the treatment composition (Day 0), and on Day 28. Collected blood was analyzed to determine the complete blood count (CBC), electrolyte composition, and liver enzymes composition according to standardized procedures at LifeLabs (London, ON, Canada).
(§3) Dosing Regimen: Each participant was randomly assigned an identifier code and placed in either the Cunermuspir or placebo treatment groups at a 1:1 ratio. Participants were given 2 capsules on Day 0 and instructed to take the contents sublingually with a small meal. Starting on Day 1, participants were instructed to take one capsule orally in the morning with breakfast, and one capsule orally between lunch and dinner, with food, for a total of 2 capsules daily over the course of the study. Participants were instructed to take all capsules with adequate, but not excessive, amounts of liquid.

[3] = tested on: Neutrophil to Lymphocyte Ratio; conditions: Day 28, twice daily administration
Protocol: as §1, §2, §3

[4] = tested on: Neutrophils; conditions: Day 28, twice daily administration; otherwise healthy subjects with chronic pain
Protocol: as §1, §2, §3

[5] = tested on: neuromuscular pain; conditions: Day 28 in comparison to Day 0; subjects with neuromuscular pain; twice daily administration; placebo group showed upward trend
Source text: as §3

NCC(=O)[O-].[Cu+] [Copper (I) glycinate, cuprous glycinate]
pH of the complex [1]: more neutral pH

O=C(O)c1cccnc1.[Cu+] [Cu(I)NA2, cuprous nicotinic acid]
lymphocyte numbers relative to the placebo group [2]: significant increase | neutrophil to lymphocyte ratio relative to the placebo group [3]: significant decrease | neutrophil numbers relative to the placebo group [4]: significant decrease | SQIR scores in Symptom, Impact and Function Domains [5]: decreased scores | pH of the complex [1]: acidic pH
